Results on 18 molecules are retold here after patent US20240050428A1 (Cullgen (Shanghai), Inc., priority 2020, published 2024).

Like-named read-outs stand apart in the source and are kept apart here. Bounds are passed on as bounds.

For assay [1], the system named is MOLM-13 cells. Briefly: Cell viability assay (CellTiter-Glo) in MOLM-13 cells, alone or with gilteritinib. In kind it is cell-based. Particulars: Homo sapiens, MOLM-13 cells, three days, CellTiter-Glo.
Assay [2] concerns MV4;11 cells. Briefly: Cell viability assay (CellTiter-Glo) in MV4;11 cells, alone or with gilteritinib. Conditions: Homo sapiens, MV4;11 cells, three days, CellTiter-Glo, read-out: MV4. It is filed as cell-based. (In general: ATP-based viability assays read luminescence as a measure of living cells.)
Setting [3] is: MOLM-13, 72 h, compound alone (without gilteritinib), read-out: MOLM-13 IC50.
Where [4] appears, read: MOLM-13, 72 h, compound with gilteritinib 20 nM, read-out: MOLM-13 IC50 gilteritinib.
Setting [5] is: MV4-11, 72 h, compound alone (without gilteritinib), 11 IC50.
Setting [6] is: MV4-11, 72 h, compound with gilteritinib 10 nM, 11 IC50 gilteritinib.
[7] abbreviates: 72 h, compound alone (without gilteritinib), read-out: MOLM-13 IC50.
[8] abbreviates: 72 h, compound with gilteritinib 20 nM, read-out: MOLM-13 IC50 gilteritinib.
The mark [9] stands for this setting: 72 h, compound alone (without gilteritinib), 11 IC50.
Setting [10] is: 72 h, compound with gilteritinib 10 nM, 11 IC50 gilteritinib.

As for `O=C1CCC(N2C(=O)c3ccc(NC[C@H]4C[C@H](n5cc(-c6ccccn6)c(C6CC6)n5)C4)cc3C2=O)C(=O)N1` (stereo partly drawn) [GS-595, 5-(((trans-3-(3-Cyclopropyl-4-(pyridin-2-yl)-1H-pyrazol-1-yl)cyclobutyl)methyl)amino)-2-(2,6-dioxopiperidin-3-yl)isoindoline-1,3-dione], the IC50 lay within 100 to 1000 nM in assay [1] (setting [3]), 10 to 100 nM in assay [1] (setting [4]), 100 to 1000 nM in assay [2] (setting [5]) and 10 to 100 nM in assay [2] (setting [6]).

In the case of `O=C1CCC(N2C(=O)c3ccc(NC[C@H]4C[C@H](n5cc(-c6cnccn6)c(C6CC6)n5)C4)cc3C2=O)C(=O)N1` (stereo partly drawn) [GS-596, 5-(((trans-3-(3-Cyclopropyl-4-(pyrazin-2-yl)-1H-pyrazol-1-yl)cyclobutyl)methyl)amino)-2-(2,6-dioxopiperidin-3-yl)isoindoline-1,3-dione], the IC50 in assay [1] (setting [3]) was over 1000 nM; in assay [1] (setting [4]), 100 to 1000 nM; in assay [2] (setting [5]) it was 100 to 1000 nM; in assay [2] (setting [6]), 100 to 1000 nM.

In the case of `O=C1CCC(N2C(=O)c3ccc(NC[C@H]4C[C@H](n5cc(-c6cccnn6)c(C6CC6)n5)C4)cc3C2=O)C(=O)N1` (stereo partly drawn) [GS-597, 5-(((trans-3-(3-Cyclopropyl-4-(pyridazin-3-yl)-1H-pyrazol-1-yl)cyclobutyl)methyl)amino)-2-(2,6-dioxopiperidin-3-yl)isoindoline-1,3-dione], the IC50 in assay [1] (setting [3]) is over 1000 nM; in assay [1] (setting [4]), 100 to 1000 nM; in assay [2] (setting [5]), 10 to 100 nM; in assay [2] (setting [6]) it was over 1000 nM.

As to `O=C1CCC(N2C(=O)c3ccc(NC[C@H]4C[C@H](n5cc(-c6ccccc6)c(C6CC6)n5)C4)cc3C2=O)C(=O)N1` (stereo partly drawn) [GS-598, 5-(((trans-3-(3-Cyclopropyl-4-phenyl-1H-pyrazol-1-yl)cyclobutyl)methyl)amino)-2-(2,6-dioxopiperidin-3-yl)isoindoline-1,3-dione], the IC50 in assay [1] (setting [7]) was 100 to 1000 nM; in assay [1] (setting [8]) it was 10 to 100 nM; in assay [2] (setting [9]) it was 10 to 100 nM; in assay [2] (setting [10]) it was under 10 nM.

On to `O=C1CCC(N2C(=O)c3ccc(NC[C@H]4C[C@H](n5cc(-c6ncccn6)c(C6CC6)n5)C4)cc3C2=O)C(=O)N1` (stereo partly drawn) [GS-599, 5-(((trans-3-(3-Cyclopropyl-4-(pyrimidin-2-yl)-1H-pyrazol-1-yl)cyclobutyl)methyl)amino)-2-(2,6-dioxopiperidin-3-yl)isoindoline-1,3-dione], for which the IC50 fell in the range of 100 to 1000 nM in assay [1] (setting [3]), 100 to 1000 nM in assay [1] (setting [4]), 100 to 1000 nM in assay [2] (setting [5]) and 10 to 100 nM in assay [2] (setting [6]).

For the molecule `CN1C(=O)CCC(N2C(=O)c3ccc(NCCC[C@H]4C[C@H](n5cc(-c6cnc7ccccc7n6)c(C6CC6)n5)C4)cc3C2=O)C1=O` (stereo partly drawn) [GS-600, 5-((3-(trans-3-(3-Cyclopropyl-4-(quinoxalin-2-yl)-1H-pyrazol-1-yl)cyclobutyl)propyl)amino)-2-(1-methyl-2,6-dioxopiperidin-3-yl)isoindoline-1,3-dione], the IC50 in assay [1] (setting [3]), in assay [1] (setting [4]), in assay [2] (setting [5]) and in assay [2] (setting [6]) was over 1000 nM in each case.

In the case of `O=C1CCC(N2C(=O)c3ccc(NC[C@H]4C[C@H](n5cc(-c6ccncn6)c(C6CC6)n5)C4)cc3C2=O)C(=O)N1` (stereo partly drawn) [GS-601, 5-(((trans-3-(3-Cyclopropyl-4-(pyrimidin-4-yl)-1H-pyrazol-1-yl)cyclobutyl)methyl)amino)-2-(2,6-dioxopiperidin-3-yl)isoindoline-1,3-dione], the IC50 in assay [1] (setting [7]) was over 1000 nM; in assay [1] (setting [8]), 10 to 100 nM; in assay [2] (setting [9]), 10 to 100 nM; in assay [2] (setting [10]), over 1000 nM.

Consider `Cc1cccnc1-c1cnn([C@H]2C[C@H](CCCNc3ccc4c(c3)C(=O)N(C3CCC(=O)NC3=O)C4=O)C2)c1` (stereo partly drawn) [GS-602, 2-(2,6-Dioxopiperidin-3-yl)-5-((3-(trans-3-(4-(3-methylpyridin-2-yl)-1H-pyrazol-1-yl)cyclobutyl)propyl)amino)isoindoline-1,3-dione], for which the IC50 in assay [1] (setting [3]) was 100 to 1000 nM; in assay [1] (setting [4]), 10 to 100 nM; in assay [2] (setting [5]), 10 to 100 nM; in assay [2] (setting [6]), under 10 nM.

`Cc1ccnc(-c2cnn([C@H]3C[C@H](CCCNc4ccc5c(c4)C(=O)N(C4CCC(=O)NC4=O)C5=O)C3)c2)c1` (stereo partly drawn) [GS-603, 2-(2,6-Dioxopiperidin-3-yl)-5-((3-(trans-3-(4-(4-methylpyridin-2-yl)-1H-pyrazol-1-yl)cyclobutyl)propyl)amino)isoindoline-1,3-dione]: the IC50 in assay [1] (setting [3]) is 100 to 1000 nM; in assay [1] (setting [4]), 10 to 100 nM; in assay [2] (setting [5]), 10 to 100 nM; in assay [2] (setting [6]), under 10 nM.

For the molecule `O=C1CCC(N2C(=O)c3ccc(NC[C@H]4C[C@H](n5cc(-c6ncccc6N6CCNCC6)c(C6CC6)n5)C4)cc3C2=O)C(=O)N1` (stereo partly drawn) [GS-604, 5-(((trans-3-(3-cyclopropyl-4-(3-(piperazin-1-yl)pyridin-2-yl)-1H-pyrazol-1-yl)cyclobutyl)methyl)amino)-2-(2,6-dioxopiperidin-3-yl)isoindoline-1,3-dione], the IC50 in assay [1] (setting [3]) was 10 to 100 nM; in assay [1] (setting [4]), under 10 nM; in assay [2] (setting [5]), 10 to 100 nM; in assay [2] (setting [6]), under 10 nM.

Take `O=C1CCC(N2C(=O)c3ccc(NC[C@H]4C[C@H](n5cc(-c6cccc(C7CNC7)n6)c(C6CC6)n5)C4)cc3C2=O)C(=O)N1` (stereo partly drawn) [GS-605, 5-(((trans-3-(4-(6-(Azetidin-3-yl)pyridin-2-yl)-3-cyclopropyl-1H-pyrazol-1-yl)cyclobutyl)methyl)amino)-2-(2,6-dioxopiperidin-3-yl)isoindoline-1,3-dione]: the IC50 in assay [1] (setting [3]), in assay [1] (setting [4]), in assay [2] (setting [5]) and in assay [2] (setting [6]) was over 1000 nM each time.

On to `CN(C)c1ccnc(-c2cn([C@H]3C[C@H](CNc4ccc5c(c4)C(=O)N(C4CCC(=O)NC4=O)C5=O)C3)nc2C2CC2)c1` (stereo partly drawn) [GS-606, 5-(((trans-3-(3-Cyclopropyl-4-(4-(dimethylamino)pyridin-2-yl)-1H-pyrazol-1-yl)cyclobutyl)methyl)amino)-2-(2,6-dioxopiperidin-3-yl)isoindoline-1,3-dione], for which the IC50 in assay [1] (setting [3]), in assay [1] (setting [4]), in assay [2] (setting [5]) and in assay [2] (setting [6]) was over 1000 nM each time.

As to `O=C1CCC(N2C(=O)c3ccc(NC[C@H]4C[C@H](n5cc(-c6cc(N7CCNCC7)ccn6)c(C6CC6)n5)C4)cc3C2=O)C(=O)N1` (stereo partly drawn) [GS-607, 5-(((trans-3-(3-Cyclopropyl-4-(4-(piperazin-1-yl)pyridin-2-yl)-1H-pyrazol-1-yl)cyclobutyl)methyl)amino)-2-(2,6-dioxopiperidin-3-yl)isoindoline-1,3-dione], the IC50 in assay [1] (setting [3]), in assay [1] (setting [4]), in assay [2] (setting [5]) and in assay [2] (setting [6]) was over 1000 nM throughout.

For `CN1CCN(c2ccnc(-c3cn([C@H]4C[C@H](CNc5ccc6c(c5)C(=O)N(C5CCC(=O)NC5=O)C6=O)C4)nc3C3CC3)c2)CC1` (stereo partly drawn) [GS-608, 5-(((trans-3-(3-Cyclopropyl-4-(4-(4-methylpiperazin-1-yl)pyridin-2-yl)-1H-pyrazol-1-yl)cyclobutyl)methyl)amino)-2-(2,6-dioxopiperidin-3-yl)isoindoline-1,3-dione], the IC50 in assay [1] (setting [3]), in assay [1] (setting [4]), in assay [2] (setting [5]) and in assay [2] (setting [6]) was over 1000 nM each time.

`Cc1nc(-c2cn([C@H]3C[C@H](CNc4ccc5c(c4)C(=O)N(C4CCC(=O)NC4=O)C5=O)C3)nc2C2CC2)ccc1Cl` (stereo partly drawn) [GS-609, 5-(((trans-3-(4-(5-Chloro-6-methylpyridin-2-yl)-3-cyclopropyl-1H-pyrazol-1-yl)cyclobutyl)methyl)amino)-2-(2,6-dioxopiperidin-3-yl)isoindoline-1,3-dione]: the IC50 in assay [1] (setting [3]) was 10 to 100 nM; in assay [1] (setting [4]), under 10 nM; in assay [2] (setting [5]), 10 to 100 nM; in assay [2] (setting [6]), under 10 nM.

`O=C1CCC(N2C(=O)c3ccc(NC[C@H]4C[C@H](n5cc(-c6cnc7c(N8CC(O)C8)cccc7n6)c(C6CC6)n5)C4)cc3C2=O)C(=O)N1` (stereo partly drawn) [GS-610]: the IC50 in assay [1] (setting [3]), in assay [1] (setting [4]), in assay [2] (setting [5]) and in assay [2] (setting [6]) was under 10 nM each time.

Turning to `Cn1ncc2c(-c3cn([C@H]4C[C@H](CNc5ccc6c(c5)C(=O)N(C5CCC(=O)NC5=O)C6=O)C4)nc3C3CC3)nccc21` (stereo partly drawn) [GS-611, 5-(((trans-3-(3-Cyclopropyl-4-(1-methyl-1H-pyrazolo[4,3-c]pyridin-4-yl)-1H-pyrazol-1-yl)cyclobutyl)methyl)amino)-2-(2,6-dioxopiperidin-3-yl)isoindoline-1,3-dione], the IC50 in assay [1] (setting [3]), in assay [1] (setting [4]), in assay [2] (setting [5]) and in assay [2] (setting [6]) was under 10 nM each time.

For `CC(C)n1ncc2c(-c3cn([C@H]4C[C@H](CNc5ccc6c(c5)C(=O)N(C5CCC(=O)NC5=O)C6=O)C4)nc3C3CC3)nccc21` (stereo partly drawn) [GS-612, 5-(((trans-3-(3-Cyclopropyl-4-(1-isopropyl-1H-pyrazolo[4,3-c]pyridin-4-yl)-1H-pyrazol-1-yl)cyclobutyl)methyl)amino)-2-(2,6-dioxopiperidin-3-yl)isoindoline-1,3-dione], the IC50 in assay [1] (setting [3]), in assay [1] (setting [4]), in assay [2] (setting [5]) and in assay [2] (setting [6]) was under 10 nM in each case.
